Consider 26 compounds from patent US12565504B2, “Spirocyclic O-glycoprotein-2-acetamido-2-deoxy-3-d-glucopyranosidase inhibitors” (BIOGEN MA INC., priority 2019, dated 2026).

One assay has as its target OGA (S400 O-GLCNAC) (Homo sapiens (Human), UniProt O60502). Nature of the assay: Cellular OGA-Tau MSD Assay. Type of assay: cell-based. As to conditions: HEK-293T cells transfected with OGT and Tau-V5; Tau-S400-GlcNAc MSD readout. As for the experimental part: HEK-293T cells were transfected with OGT and Tau-V5 plasmids using Lipofectamine and grown overnight. Next day, the cells were collected and re-plated at 1×10^5 cells per well in 96 well plates. Cells were incubated for 4 hr at 37° C., before compounds were added at 1 uM, with 3-fold dilutions in a 10-point titration. Cell plates were incubated with compounds overnight at 37° C. The next day media was removed from wells by gentle aspiration and 120 ul of 1× Cell Lysis buffer mixed with protease and phosphatase cocktail added to each well. A freeze thaw was performed at −80° C., then mixed before transferring 50 μl to MSD plates coated with V5-tag antibody to capture Tau. MSD Plates were incubated overnight at 4° C., on a plate shaker. The following day, plates were washed and incubated with Tau-S400-GlcNAc antibody for 2 hr and then developed with rabbit Sulfo-tag antibody. Final read out was carried out on an MSD 600 reader. The data was analyzed using Graph Pad or Genedata, the data was normalized and % activity versus log of compound concentration was plotted. The ICso values were obtained from a 4 parameter fit.

The target in assay [1] is Recombinant full length human OGA enzyme (Homo sapiens (Human), UniProt O60502). Nature of the assay: OGA Enzyme Inhibition Biochemical Assay. As to conditions: 1 nM OGA, 100 μM 4-MUGlcNAc, 90 minutes, pH 6.4. On the procedure:
Recombinant full length human OGA enzyme was purchased from Origene. 4-MUGlcNAc substrate was purchased from Sigma. All other reagents were purchased from Sigma or Fisher. Assay buffer consists of the McIlvaine buffer system, pH 6.4 (0.2M Na2HPO4 mixed with 0.1M citric acid) and 0.01% BSA. […] Reactions were incubated for 90 minutes at room temperature and quenched with 40 μl of 3M glycine, pH 10 and read on a Perkin Elmer Envision plate reader (Ex: 355 nm/Em: 460 nm). Compounds were tested with a 10-point dose-response starting from 20 μM with a 4-fold dilution. Data was fit using GraphPad Prism using a 4-parameter fit with variable slope.

Structures are written as SMILES. pIC50: −log10 of the molar value.

Sequence of Recombinant full length human OGA enzyme (O60502 whole entry): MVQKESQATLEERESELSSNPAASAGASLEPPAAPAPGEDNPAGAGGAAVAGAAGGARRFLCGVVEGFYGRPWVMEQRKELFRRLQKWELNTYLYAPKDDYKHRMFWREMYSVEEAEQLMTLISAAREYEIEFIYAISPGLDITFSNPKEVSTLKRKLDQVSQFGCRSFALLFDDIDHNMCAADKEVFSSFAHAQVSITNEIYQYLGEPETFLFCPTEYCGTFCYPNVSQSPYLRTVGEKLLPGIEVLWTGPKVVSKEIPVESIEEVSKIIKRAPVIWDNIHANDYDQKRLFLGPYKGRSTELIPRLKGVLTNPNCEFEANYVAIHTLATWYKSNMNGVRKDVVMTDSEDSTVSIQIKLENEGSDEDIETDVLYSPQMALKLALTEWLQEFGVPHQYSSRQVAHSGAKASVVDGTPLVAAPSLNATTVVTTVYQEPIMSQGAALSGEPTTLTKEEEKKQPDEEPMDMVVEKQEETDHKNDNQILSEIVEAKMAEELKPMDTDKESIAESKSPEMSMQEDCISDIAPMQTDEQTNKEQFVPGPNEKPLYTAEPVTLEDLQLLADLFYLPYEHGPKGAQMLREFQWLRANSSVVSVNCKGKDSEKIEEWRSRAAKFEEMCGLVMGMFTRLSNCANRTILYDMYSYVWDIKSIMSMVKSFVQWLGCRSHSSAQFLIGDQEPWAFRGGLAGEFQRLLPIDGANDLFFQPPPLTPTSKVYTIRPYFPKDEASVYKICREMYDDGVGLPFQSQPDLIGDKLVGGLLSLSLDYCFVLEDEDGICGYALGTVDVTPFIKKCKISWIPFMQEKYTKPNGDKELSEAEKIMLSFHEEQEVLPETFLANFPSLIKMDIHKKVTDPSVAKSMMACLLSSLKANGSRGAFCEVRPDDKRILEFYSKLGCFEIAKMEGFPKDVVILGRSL
Sequence of OGA (S400 O-GLCNAC) (O60502 whole entry): as above

As for `CC(=O)Nc1nc(F)c(CN2CCC[C@@]3(C2)OCc2cnccc23)s1` (single isomer, unassigned) [Example 70-a], the pIC50 against OGA (S400 O-GLCNAC) was 8.08; in assay [1], 8.85.
Regarding `CC(=O)Nc1nc(F)c(CN2C[C@@]3(Cc4cc(N(C)C)ncc4O3)C[C@@H]2C)s1` [Example 28, N-(5-(((2R,5′S)-5-(Dimethylamino)-5′-methyl-3H-spiro[furo[2,3-c]pyridine-2,3′-pyrrolidin]-1′-yl)methyl)-4-fluorothiazol-2-yl)acetamide], the results for the pIC50 (on OGA (S400 O-GLCNAC); in assay [1]) were 9.00 and more than 9.00, respectively.
Consider `CC(=O)Nc1nc(F)c(CN2C[C@@]3(C[C@@H]2C)OCc2cnccc23)s1` (single isomer, unassigned) [Example 64-a], for which the pIC50 on OGA (S400 O-GLCNAC) is 6.93; in assay [1], 8.00.
Taken in the same sequence, the figures for `CC(=O)Nc1ncc(CN2CC3(CCC2C)OCc2ccccc23)s1` (stereo not shown) [Example 60, N-(5-((6′-Methyl-3H-spiro[isobenzofuran-1,3′-piperidin]-1′-yl)methyl)thiazol-2-yl)acetamide] were less than 6.00 and 5.77.
Regarding `COc1cnc2c(n1)CC1(C[C@H](C)N(Cc3sc(NC(C)=O)nc3F)C1)O2` (stereo partly drawn) [Example 50, N-(4-Fluoro-5-(((5′S)-2-methoxy-5′-methyl-7H-spiro[furo[2,3-b]pyrazine-6,3′-pyrrolidin]-1′-yl)methyl)thiazol-2-yl)acetamide], the values for the pIC50 (at OGA (S400 O-GLCNAC); in assay [1]) were 8.05 and 8.64, respectively.
As to `CC(=O)Nc1nc(F)c(CN2C[C@@]3(Cc4cc(C(F)(F)F)ncc4O3)C[C@@H]2C)s1` [Example 21, N-(4-Fluoro-5-(((2R,5′S)-5′-methyl-5-(trifluoromethyl)-3H-spiro[furo[2,3-c]pyridine-2,3′-pyrrolidin]-1′-yl)methyl)thiazol-2-yl)acetamide], the pIC50 is 8.22 against OGA (S400 O-GLCNAC) and 8.15 in assay [1].
Taken in the same sequence, the figures for `CC(=O)Nc1ncc(CN2C[C@@]3(Cc4cc(N5CCN(C)CC5)ncc4O3)C[C@@H]2C)s1` [Example 44, N-(5-(((2R,5′S)-5′-Methyl-5-(4-methylpiperazin-1-yl)-3H-spiro[furo[2,3-c]pyridine-2,3′-pyrrolidin]-1′-yl)methyl)thiazol-2-yl)acetamide] were 7.89 and more than 9.00.
In the same order, the values of `CC(=O)Nc1ncc(CN2CCCC3(C2)OCc2ccccc23)s1` (stereo not shown) [Example 55, N-(5-((3H-Spiro[isobenzofuran-1,3′-piperidin]-1′-yl)methyl)thiazol-2-yl)acetamide] are 6.60 and 7.61.
In the same order, the values of `CC(=O)Nc1nc(F)c(CN2CCC[C@]3(C2)OCc2cnccc23)s1` (single isomer, unassigned) [Example 70-b] are less than 6.00 and 6.07.
In the case of `CC(=O)Nc1ncc(CN2C[C@@]3(Cc4cc(C5CC5)ncc4O3)C[C@@H]2C)s1` [Example 25, N-(5-(((2R,5′S)-5-Cyclopropyl-5′-methyl-3H-spiro[furo[2,3-c]pyridine-2,3′-pyrrolidin]-1′-yl)methyl)thiazol-2-yl)acetamide], the figures for the pIC50 (against OGA (S400 O-GLCNAC); in assay [1]) were 7.64 and 8.22, respectively.
With `CC(=O)Nc1nc(F)c(CN2CCCC3(C2)OCc2c3ccnc2Cl)s1` (racemic) [Example 83, N-(5-((4-Chloro-3H-spiro[furo[3,4-c]pyridine-1,3′-piperidin]-1′-yl)methyl)-4-fluorothiazol-2-yl)acetamide], the pIC50 at OGA (S400 O-GLCNAC) was 7.74; in assay [1], 8.23.
Taken in the same sequence, the figures for `CC(=O)Nc1nc(F)c(CN2CCC[C@@]3(C2)OCc2c3ccnc2Cl)s1` [Example 84-a, (R)—N-(5-((4-chloro-3H-spiro[furo[3,4-c]pyridine-1,3′-piperidin]-1′-yl)methyl)-4-fluorothiazol-2-yl)acetamide] were 8.07 and 8.59.
Taken in the same sequence, the figures for `CC(=O)Nc1ncc(CN2CC3(C[C@@H]2C)OCc2cccnc23)s1` (stereo partly drawn) [Example 62, N-(5-(((5′S)-5′-Methyl-5H-spiro[furo[3,4-b]pyridine-7,3′-pyrrolidin]-1′-yl)methyl)thiazol-2-yl)acetamide] were 7.14 and 7.36.
Taken in the same sequence, the figures for `CC(=O)Nc1nc(F)c(CN2C[C@@]3(Cc4cc(N5CCC5)ncc4O3)C[C@@H]2C)s1` [Example 34, N-(5-(((2R,5′S)-5-(Azetidin-1-yl)-5′-methyl-3H-spiro[furo[2,3-c]pyridine-2,3′-pyrrolidin]-1′-yl)methyl)-4-fluorothiazol-2-yl)acetamide] were 9.00 and more than 9.00.
As for `CC(=O)Nc1ncc(CN2C[C@@]3(Cc4cc(C(F)F)ncc4O3)C[C@@H]2C)s1` [Example 27, N-(5-(((2R,5′S)-5-(Difluoromethyl)-5′-methyl-3H-spiro[furo[2,3-c]pyridine-2,3′-pyrrolidin]-1′-yl)methyl)thiazol-2-yl)acetamide], the pIC50 against OGA (S400 O-GLCNAC) was 7.80; in assay [1], 7.96.
Taken in the same sequence, the figures for `CC(=O)Nc1ncc(CN2CCCC3(C2)OCc2c3ccnc2Cl)s1` (stereo not shown) [Example 85, N-(5-((4-Chloro-3H-spiro[furo[3,4-c]pyridine-1,3′-piperidin]-1′-yl)methyl)thiazol-2-yl)acetamide] were 7.77 and 8.35.
In the same order, the values of `COc1ccc2c(n1)C[C@]1(C[C@H](C)N(Cc3sc(NC(C)=O)nc3F)C1)O2` [Example 20, N-(4-Fluoro-5-(((2S,5′S)-5-methoxy-5′-methyl-3H-spiro[furo[3,2-b]pyridine-2,3′-pyrrolidin]-1′-yl)methyl)thiazol-2-yl)acetamide] are 8.40 and more than 9.00.
As to `CC(=O)Nc1nc(F)c(CN2CCC3(Cc4cnccc4O3)C2)s1` (stereo not shown) [Example 12, N-(5-((3H-Spiro[furo[3,2-c]pyridine-2,3′-pyrrolidin]-1′-yl)methyl)-4-fluorothiazol-2-yl)acetamide], the pIC50 is 7.03 against OGA (S400 O-GLCNAC) and 7.46 in assay [1].
In the same order, the values of `CC(=O)Nc1nc(F)c(CN2C[C@@]3(Cc4cc(NC(C)C)ncc4O3)C[C@@H]2C)s1` [Example 30, N-(4-Fluoro-5-(((2R,5′S)-5-(isopropylamino)-5′-methyl-3H-spiro[furo[2,3-c]pyridine-2,3′-pyrrolidin]-1′-yl)methyl)thiazol-2-yl)acetamide] are 8.10 and more than 9.00.
Taken in the same sequence, the figures for `CC(=O)Nc1nc(F)c(CN2CCCC3(C2)OCc2ccccc23)s1` (stereo not shown) [Example 56, N-(5-((3H-Spiro[isobenzofuran-1,3′-piperidin]-1′-yl)methyl)-4-fluorothiazol-2-yl)acetamide] were 6.95 and 7.77.
Taken in the same sequence, the figures for `CC(=O)Nc1nc(F)c(CN2CCCC3(C2)OCc2cncnc23)s1` (stereo not shown) [Example 88, N-(5-((5H-Spiro[furo[3,4-d]pyrimidine-7,3′-piperidin]-1′-yl)methyl)-4-fluorothiazol-2-yl)acetamide] were 7.04 and 7.68.
Regarding `COc1cc2c(cn1)O[C@]1(C2)C[C@H](C)N(Cc2sc(NC(C)=O)nc2F)C1` [Example 16, N-(4-Fluoro-5-(((2R,5′S)-5-methoxy-5′-methyl-3H-spiro[furo[2,3-c]pyridine-2,3′-pyrrolidin]-1′-yl)methyl)thiazol-2-yl)acetamide], the results for the pIC50 (against OGA (S400 O-GLCNAC); in assay [1]) were 8.70 and more than 9.00, respectively.
In the same order, the values of `CC(=O)Nc1nc(F)c(CN2C[C@@]3(Cc4cc(NC5CC5)ncc4O3)C[C@@H]2C)s1` [Example 31, N-(5-(((2R,5′S)-5-(Cyclopropylamino)-5′-methyl-3H-spiro[furo[2,3-c]pyridine-2,3′-pyrrolidin]-1′-yl)methyl)-4-fluorothiazol-2-yl)acetamide] are 7.82 and more than 9.00.
For `CC(=O)Nc1ncc(CN2C[C@@]3(Cc4cc(N5CCOCC5)ncc4O3)C[C@@H]2C)s1` [Example 37, N-(5-(((2R,5′S)-5′-Methyl-5-morpholino-3H-spiro[furo[2,3-c]pyridine-2,3′-pyrrolidin]-1′-yl)methyl)thiazol-2-yl)acetamide], the values for the pIC50 (on OGA (S400 O-GLCNAC); in assay [1]) were 8.05 and more than 9.00, respectively.
On to `CC(=O)Nc1ncc(CN2CCCC3(C2)OCc2c3cc[nH]c2=O)s1` (stereo not shown) [Example 87, N-(5-((4-Oxo-4,5-dihydro-3H-spiro[furo[3,4-c]pyridine-1,3′-piperidin]-1′-yl)methyl)thiazol-2-yl)acetamide], for which the pIC50 against OGA (S400 O-GLCNAC) is 7.27; in assay [1], 7.46.
As to `COCCN(C)c1cc2c(cn1)O[C@]1(C2)C[C@H](C)N(Cc2cnc(NC(C)=O)s2)C1` [Example 32, N-(5-(((2R,5′S)-5-((2-Methoxyethyl)(methyl)amino)-5′-methyl-3H-spiro[furo[2,3-c]pyridine-2,3′-pyrrolidin]-1′-yl)methyl)thiazol-2-yl)acetamide], the figures for the pIC50 (against OGA (S400 O-GLCNAC); in assay [1]) were 8.15 and more than 9.00, respectively.

In general, pIC50 refers to the negative decadic logarithm of the IC50, by convention in mol/L.
